Assay results published in patent US5498609A, “Benzoazepinyl compounds as oxytocin and vasopressin antagonists” (Otsuka Pharmaceutical Company, Limited, priority 1992, dated 1996).

Tests used:
V1 receptor = V1 receptor (Rattus norvegicus, UniProt P30560); assay: biochemical; details: rat liver plasma membrane, [3H]-Arg-vasopressin, 37° C., 10 minutes, pH 8.0; read-out: IC50 in V1 receptor binding assay
Procedure: Experiment 1: V1 receptor binding assay
Using rat liver plasma membrane preparations prepared according to Ichihara's method [cf: Akira Ichihara, J. Bio. Chem., 258, 9283 (1983)], the plasma membrane (50000 dpm, 2×10^-10 M) of [^3 H]-Arg-vasopressin and a test compound (60 μg, 10^-8 to 10^-4 M) are incubated at 37° C. for 10 minutes in 100 mM Tris-HCl buffer (pH: 8.0) (250 μl) containing 5 mM MgCl2, 1 mM EDTA and 0.1% BSA. After incubation, the mixture is filtered three times using the glass filter (GF/F) so as to separate the membrane preparation binding with vasopressin and then washed with the buffer (5 ml). This glass filter is taken out and mixed with liquid scintillation cocktail. The amount of [^3 H]-vasopressin binding with the membrane is measured by liquid scintillation counter and the rate of the inhibitory effect of the test compound is estimated according to the following equation. [formula] C1 : The amount of [^3 H]-vasopressin binding with the membrane in the presence of the test compound (known amount)
(§1) C0 : The amount of [^3 H]-vasopressin binding with the membrane in the absence of the test compound
(§2) B1 : The amount of [^3 H]-vasopressin binding with the membrane in the presence of the excess amount of vasopressin (10^-6 M)
(§3) The results are expressed as IC50 value, which is the concentration of the test compound required to achieve the inhibitory effect in the rate of 50%.

V2 receptor = target: T1, V2 receptor (Rattus norvegicus, UniProt Q00788); assay: biochemical; details: rat kidney plasma membrane, [3H]-Arg-vasopressin, 4° C., pH 8.0, read-out: IC50 in V2 receptor binding assay
T1 construct: Using rat kidney plasma membrane preparations; from tissue; host or cells: rat kidney plasma membrane
T1 sequence (Q00788 whole entry): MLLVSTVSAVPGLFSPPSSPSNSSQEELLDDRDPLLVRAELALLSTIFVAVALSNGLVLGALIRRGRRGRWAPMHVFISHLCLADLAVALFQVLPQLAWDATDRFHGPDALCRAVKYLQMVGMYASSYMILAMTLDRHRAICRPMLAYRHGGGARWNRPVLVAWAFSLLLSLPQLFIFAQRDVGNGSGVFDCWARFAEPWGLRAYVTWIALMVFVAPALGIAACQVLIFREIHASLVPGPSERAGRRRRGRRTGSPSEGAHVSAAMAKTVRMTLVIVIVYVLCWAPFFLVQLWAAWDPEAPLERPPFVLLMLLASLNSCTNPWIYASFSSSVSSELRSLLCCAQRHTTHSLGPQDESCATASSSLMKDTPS
Procedure: Experiment 2: V2 receptor binding assay
Using rat kidney plasma membrane preparations prepared according to O. Hechter's method [cf: J. Bio. Chem., 253, 3211 (1978)], the plasma membrane (100000 dpm, 4×10^-10 M) of [^3 H]-Arg-vasopressin and a test compound (0.6 mg, 10^-10 to 10^-5 M) are incubated at 4° C. for 3 hours in 100 mM Tris-HCl buffer (pH: 8.0) (250 μl) containing 5 mM MgCl2, 1 mM EDTA and 0.1% BSA. After incubation, the mixture is filtered using the glass filter (GF/F) so as to separate the membrane preparation binding with vasopressin and then washed twice with the buffer (each 5 ml). This glass filter is taken out and mixed with liquid scintillation cocktail. The amount of [^3 H]-vasopressin binding with the membrane is measured by liquid scintillation counter and the rate of the inhibitory effect of the test compound is estimated according to the following equation. [formula] C1 : The amount of [^3 H]-vasopressin binding with the membrane in the presence of the test compound (known amount)
as §1, §2, §3

Oxytocin receptor = target: T2, Oxytocin receptor (Rattus norvegicus, UniProt P70536); assay: Oxytocin receptor binding assay ([3H]-oxytocin, rat uterine muscle membrane); details: 25° C., one hour, pH 8.0
T2 construct: from tissue; host or cells: rat uterine muscle membrane (diethylstilbestrol-treated)
T2 sequence (P70536 1-388): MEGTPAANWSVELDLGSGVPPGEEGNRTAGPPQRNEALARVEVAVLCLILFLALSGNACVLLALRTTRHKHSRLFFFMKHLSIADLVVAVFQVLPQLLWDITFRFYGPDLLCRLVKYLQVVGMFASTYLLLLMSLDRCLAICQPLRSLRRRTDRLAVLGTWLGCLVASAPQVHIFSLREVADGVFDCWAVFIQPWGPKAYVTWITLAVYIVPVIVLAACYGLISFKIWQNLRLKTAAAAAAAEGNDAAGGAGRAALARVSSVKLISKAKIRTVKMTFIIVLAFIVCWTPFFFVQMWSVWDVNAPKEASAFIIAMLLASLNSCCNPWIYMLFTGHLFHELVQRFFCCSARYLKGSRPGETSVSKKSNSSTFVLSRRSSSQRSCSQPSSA
Procedure: Experiment 3: Oxytocin receptor binding assay
According to the method of W. Y. Chan et al. [Endocrinology, 126, 2095-2101 (1990)], uterine muscle is taken out from a rat which has previously been injected subcutaneously with diethylstilbestrol the day before, and homogenized, which is used as a membrane preparation. The membrane preparation (0.2 mg), [^3 H]-oxytocin (100000 dpm, 10^-9 M), a test compound (10^-9 -10^-5 M) are incubated at 25° C. for one hour in 100 mM Tris-HCl buffer (pH 8.0, 250 μl) containing a 5 mM MgCl2, 1 mM MEDTA and 0.1% BSA. The mixture is filtered through the glass filter (GF/B) so as to separate the membrane preparation binding with [^3 H]-oxytocin, and then, washed twice with the buffer (5 ml). This glass filter is put into a vial and mixed with Aquasole (liquid scintillation cocktail). The amount of [^3 H]-oxytocin binding with the membrane is measured by liquid scintillation counter. The rate of the inhibitory effect of the test compound is estimated according to the following equation.
Inhibitory Rate (%)=100-[(C1 -B)/(C0 -B)]×100
C1 : The amount of [^3 H]-oxytocin binding with the membrane in the presence of a test compound (known amount)
C0 : The amount of [^3 H]-oxytocin binding with the membrane in the absence of a test compound
B: The amount of [^3 H]-oxytocin binding with the membrane in the presence of the excess amount of oxytocin (5×10^-6 M).
The results are expressed as IC50 value, which is the concentration of the test compound required to achieve the inhibitory rate in the rate of 50%.

Sequence of V1 receptor (P30560 whole entry): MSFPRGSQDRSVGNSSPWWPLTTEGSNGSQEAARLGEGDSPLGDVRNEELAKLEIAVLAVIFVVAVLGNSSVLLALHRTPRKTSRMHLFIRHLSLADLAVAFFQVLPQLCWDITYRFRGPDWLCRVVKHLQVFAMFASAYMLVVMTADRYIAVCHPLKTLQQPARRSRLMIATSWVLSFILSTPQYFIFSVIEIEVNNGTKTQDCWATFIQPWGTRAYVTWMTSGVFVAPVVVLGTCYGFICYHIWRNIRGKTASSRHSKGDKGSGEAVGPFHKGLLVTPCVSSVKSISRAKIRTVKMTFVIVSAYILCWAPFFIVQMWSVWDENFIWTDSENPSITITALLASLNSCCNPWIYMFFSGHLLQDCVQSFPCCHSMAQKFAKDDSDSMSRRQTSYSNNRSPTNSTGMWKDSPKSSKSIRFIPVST

Row | IC50 (V1 receptor) | IC50 (V2 receptor) | IC50 (Oxytocin receptor) | SMILES
1 | 0.49 µM | 0.033 µM | 3.5 µM | O=C(O)CC1CCCN(C(=O)c2ccc(NC(=O)c3ccccc3Br)nc2)c2ccc(Cl)cc21 (stereo not drawn) [Compound of Ex. 101]
2 | 0.015 µM | 0.003 µM | 0.64 µM | CC(=O)OCCC1CCCN(C(=O)c2ccc(NC(=O)c3ccccc3Cl)nc2)c2ccc(Cl)cc21 (stereo not drawn) [Compound of Ex. 122, 7-chloro-5-(2-acetyloxyethyl)-1-[6-(2-chlorobenzoylamino)nicotinoyl]-2,3,4,5-tetrahydro-1H-benzazepine]
3 | 0.02 µM | 0.0032 µM | 0.32 µM | Cc1ccccc1C(=O)Nc1ccc(C(=O)N2CCCC(CCO)c3cc(Cl)ccc32)cn1 (stereo not drawn) [Compound of Ex. 123]
4 | 0.044 µM | 0.009 µM | 0.74 µM | Cc1ccccc1C(=O)Nc1ccc(C(=O)N2CCCC(CC(N)=O)c3cc(Cl)ccc32)cn1 (stereo not drawn) [Compound of Ex. 40]
5 | 0.009 µM | 0.003 µM | 0.28 µM | CCNC(=O)CC1CCCN(C(=O)c2ccc(NC(=O)c3ccccc3Cl)nc2)c2ccc(Cl)cc21 (stereo not drawn) [Compound of Ex. 112]
6 | 0.027 µM | 0.008 µM | 1.5 µM | C=CCOC1CCCN(C(=O)c2ccc(NC(=O)c3ccccc3Br)nc2)c2ccc(Cl)cc21 (stereo not drawn) [Compound of Ex. 76]

The remaining lines, values behind:

Row | SMILES | IC50 (V1 receptor) | IC50 (V2 receptor) | IC50 (Oxytocin receptor)
7 | O=C(Nc1ccc(C(=O)N2CCCC(CC(=O)N3CCCC3)c3cc(Cl)ccc32)cn1)c1ccccc1Cl (stereo not drawn) [Compound of Ex. 114] | 0.011 µM | 0.003 µM | 0.32 µM
8 | O=C(Nc1ccc(C(=O)N2CCCC(CCN3CCCC3)c3cc(Cl)ccc32)cn1)c1ccccc1Cl (stereo not drawn) [Compound of Ex. 126, 7-chloro-5-[2-(1-pyrrolidinyl)ethyl]-1-[6-(2-chlorobenzoylamino)nicotinoyl]-2,3,4,5-tetrahydro-1H-benzazepine] | 0.019 µM | 0.0053 µM | 1.32 µM
9 | O=C(Nc1ccc(C(=O)N2CCCCc3cc(Cl)ccc32)cn1)c1ccccc1Cl [Compound of Ex. 44] | 0.008 µM | 0.011 µM | 0.307 µM
10 | O=C1c2ccccc2OCCN1c1ccc(C(=O)N2CCCCc3cc(Cl)ccc32)cn1 [Compound of Ex. 94, 7-chloro-1-[6-(6,7-benzo-1-oxo-4-azepin-5-on-4-yl)nicotinoyl]-2,3,4,5-tetrahydro-1H-benzazepine] | 0.042 µM | 0.036 µM | 0.84 µM
11 | O=C(Nc1ccc(C(=O)N2CCCCc3cc(Cl)ccc32)cn1)c1ccccc1OCCO [Compound of Ex. 83] | 0.071 µM | 0.43 µM | 6.6 µM
12 | CN1CCN(C(=O)COc2ccccc2C(=O)Nc2ccc(C(=O)N3CCCCc4cc(Cl)ccc43)cn2)CC1 [Compound of Ex. 88, 7-chloro-1-{6-[2-(4-methyl-1-piperazinyl)-carbonylmethoxybenzoylamino]nicotinoyl}-2,3,4,5-tetrahydro-1H-benzazepine] | 0.026 µM | 0.2 µM | 4.5 µM
13 | Cc1ccccc1C(=O)Nc1ccc(C(=O)N2CCCC(OCCN(C)C)c3cc(Cl)ccc32)cn1 (stereo not drawn) [Compound of Ex. 37, 7-chloro-5-(2-dimethylaminoethoxy)-1-[6-(2-methylbenzoylamino)nicotinoyl]-2,3,4,5-tetrahydro-1H-benzazepine] | 0.011 µM | 0.005 µM | 1.14 µM
14 | O=C(Nc1ccc(C(=O)N2CCCCc3cc(Cl)ccc32)cn1)c1ccccc1Br [Compound of Ex. 45] | 0.005 µM | 0.007 µM | 0.26 µM
